From PMC9482650, “Quantitative fragmentomics allow affinity mapping of interactomes” (Nature Communications, 2022)

What was measured:
Format in all cases: binding, human
HeLa cell extract preys = experiment: PBM-AP-MS, PBM peptide baits
Experimental: (§1) HEK293T and HeLa cells were authenticated and found 100% identity to ATCC cat. CRL-3216 and ATCC cat. CCL-2, respectively. Jurkat and HaCat cell lines were not authenticated (original source: ECACC and Deutsches Krebsforschungszentrum DKFZ, respectively). HeLa cells were grown in DMEM (1 g/L glucose, Gibco) medium completed with 5% FCS and 40 μg/mL gentamicin, diluted every 3rd/4th day 1/10. HaCat cells were grown in DMEM (1 g/L glucose, Gibco) medium completed with 10% FCS and 40 μg/mL gentamicin, diluted every 3rd/4th day 1/4. Jurkat cells were grown in RPMI (Gibco) medium completed with 10% FCS and 40 μg/mL gentamicin, diluted every 3rd/4th day 1/12. All cells were kept at 37 °C and 5% CO2. For proteomics analyses cells were seeded on T-175 flasks. After they reached confluency, adherent cells were washed with PBS once and collected by scraping with ice-cold lysis buffer (Hepes-KOH pH 7.5 50 mM, NaCl 150 mM, Triton X-100 1%, complete EDTA-free protease inhibitor cocktail 1×, EDTA 2 mM, TCEP 5 mM, glycerol 10%). Jurkat cells were collected by 1000 g × centrifugation, washed once with PBS, then collected by 1000 g × 5 min centrifugation again and lysed in ice-cold lysis buffer. Lysates were sonicated 4 × 20 s with 1 s long pulses on ice, then incubated rotating at 4 °C for 30 min. Lysates were centrifuged at 12,000 rpm 4 °C for 20 min and supernatant was kept for further analysis. Concentration determination was carried out by standard Bradford method (Bio-Rad Protein Assay Dye Reagent #5000006) using BSA (MP BIomedicals #160069) as control on a Bio-Rad SmartSpec 3000 spectrophotometer instrument.
(§2) For PBM-AP-MS experiments, 30 μl streptavidin resin was mixed with biotin or peptide at 50–60 μM concentration in 6–6.5 resin volume for 60 min to achieve resin saturation. For PDZ-AP-MS experiments, 30 μl streptavidin resin was mixed with biotinylated MBP or MBP-PDZ at 40-50 μM concentration in >1000× resin volume for 60 min to achieve resin saturation. After saturation, resins were washed a single time (ten resin volume, holdup buffer), and were depleted with biotin (1 mM biotin, 5–10 resin volume, 10 min). Finally, resins were washed two times. 0.5 ml 2 mg/ml cell lysate was added to the dry resin (1 mg total input) and were incubated at 4 °C for 2 h. Then, the beads were washed three times with 10 resin volume buffer containing: 50 mM TRIS pH 8.5, 150 mM NaCl, 1% TritonX-100, 10× complete EDTA-free protease inhibitor cocktail, 2 mM EDTA, 1 mM TCEP. Then, the beads were washed two times with ten resin volume buffer containing: 50 mM TRIS pH 8.5, 150 mM NaCl, 1 mM TCEP. Finally, captured protein was eluted from the resin in two steps and the eluted fractions were pooled. For each elution the beads were incubated for 30 min with three resin volume buffer containing: 20 mM TRIS pH8.5, 100 mM NaCl, 500 μM TCEP, 8 M Urea. Between each step, the beads were separated by mild centrifugation and the supernatant was removed by gentle pipetting.
(§3) The samples were precipitated with TCA 20% overnight at 4 °C and centrifuged at 14,000 rpm for 10 min at 4 °C. The protein pellets were washed twice with 1 mL cold acetone and air dried. The protein extracts were solubilized in urea 8 M, reduced with 5 mM TCEP for 30 min, and alkylated with 10 mM iodoacetamide for 30 min in the dark. Double digestion was performed at 37 °C with 500 ng endoproteinase Lys-C for 4 h, followed by fourfold dilution and an overnight digestion with 500 ng trypsin. Peptide mixtures were then desalted on C18 spin-column and dried on Speed-Vacuum.
(§4) Samples were analyzed using an Ultimate 3000 nano-RSLC (Thermo Scientific, San Jose California) coupled in line with a LTQ-Orbitrap ELITE mass spectrometer via a nano-electrospray ionization source (Thermo Scientific, San Jose California). […]

[1] = test system: Jurkat cell extract preys; experiment: PBM-AP-MS, PBM peptide baits
Experimental: as §1, §2, §3, §4

PDZ-proteins = experiment: Estimated PPI affinity, additive association constants of all PDZ sites;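 further: calculated estimate, not directly measured: domain-motif affinities from holdup assays, association constants summed over all PDZ sites, one motif bound at a time, weak interactions ignored, giving a lower limit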
Description: We used the previously generated domain-motif interactome, consisting of the composite affinities (i.e., taken from the most reliable holdup method; see above) to estimate affinities of PPIs. We assumed that a multidomain PDZ-protein can only interact with a single PBM at the same time (Eq. (4)):4 PDZ+PBM⇌(PDZ−PBM)site1,or(PDZ−PBM)site2,or(PDZ−PBM)siten
Using this approximation, as proposed by others before[45], the association constant of a multi-site interaction is the sum of the association constants of all sites (Eq. (5)):5 Ka,additive=[PDZ−PBM]site1+[PDZ−PBM]site2+…+[PDZ−PBM]siten/[PDZ]×[PBM]=∑Ka,site
The contribution of unmeasurable weak interactions was also neglected in the calculations.

In the case of HPV18E6, the “Enrichment values compared to biotin controls” value (HeLa cell extract preys; prey AHNAK, PBM peptide bait) is reported as 0.9, the “Enrichment values compared to biotin controls” value (HeLa cell extract preys; prey ARHGAP21, PBM peptide bait) is reported as 1.1 and the “Enrichment values compared to biotin controls” value (HeLa cell extract preys; prey ARHGEF12, PBM peptide bait) is reported as 1.0. For the same substance, the “Enrichment values compared to biotin controls” value (HeLa cell extract preys; prey CASK, PBM peptide bait) was 5.3, the “Enrichment values compared to biotin controls” value (HeLa cell extract preys; prey DLG1, PBM peptide bait) was 6.5 and the “Enrichment values compared to biotin controls” value (HeLa cell extract preys; prey DLG3, PBM peptide bait) was 5.8. For the same substance, the “Enrichment values compared to biotin controls” value (HeLa cell extract preys; prey DLG5, PBM peptide bait) was 1.4, the “Enrichment values compared to biotin controls” value (HeLa cell extract preys; prey DVL2, PBM peptide bait) was 1.0 and the “Enrichment values compared to biotin controls” value (HeLa cell extract preys; prey GOPC, PBM peptide bait) was 2.8. The “Enrichment values compared to biotin controls” value (HeLa cell extract preys; prey HTRA1, PBM peptide bait) was 2.4, the “Enrichment values compared to biotin controls” value (HeLa cell extract preys; prey InaDl, PBM peptide bait) was 3.6 and the “Enrichment values compared to biotin controls” value (HeLa cell extract preys; prey LAP2, PBM peptide bait) was 1.8. The “Enrichment values compared to biotin controls” value (HeLa cell extract preys; prey LIN7C, PBM peptide bait) was 285.6, the “Enrichment values compared to biotin controls” value (HeLa cell extract preys; prey LMO7, PBM peptide bait) was 1.9 and the “Enrichment values compared to biotin controls” value (HeLa cell extract preys; prey MPDZ, PBM peptide bait) was 3.2. The “Enrichment values compared to biotin controls” value (HeLa cell extract preys; prey MPP5, PBM peptide bait) was 60.3, the “Enrichment values compared to biotin controls” value (HeLa cell extract preys; prey MPP6, PBM peptide bait) was 3.7 and the “Enrichment values compared to biotin controls” value (HeLa cell extract preys; prey MPP7, PBM peptide bait) was 14.5. For the same substance, the “Enrichment values compared to biotin controls” value (HeLa cell extract preys; prey NHERF2, PBM peptide bait) was 0.843, the “Enrichment values compared to biotin controls” value (HeLa cell extract preys; prey NHERF3, PBM peptide bait) was 0.8 and the “Enrichment values compared to biotin controls” value (HeLa cell extract preys; prey PDLIM5, PBM peptide bait) was 0.9. For the same substance, the “Enrichment values compared to biotin controls” value (HeLa cell extract preys; prey PDLIM7, PBM peptide bait) was 0.8, the “Enrichment values compared to biotin controls” value (HeLa cell extract preys; prey PSMD9, PBM peptide bait) was 0.8 and the “Enrichment values compared to biotin controls” value (HeLa cell extract preys; prey SCRIB, PBM peptide bait) was 215.8. The “Enrichment values compared to biotin controls” value (HeLa cell extract preys; prey SIPA1L1, PBM peptide bait) was 0.9, the “Enrichment values compared to biotin controls” value (HeLa cell extract preys; prey SNTA1, PBM peptide bait) was 1.2 and the “Enrichment values compared to biotin controls” value (HeLa cell extract preys; prey SNTB1, PBM peptide bait) was 18.1. The “Enrichment values compared to biotin controls” value (HeLa cell extract preys; prey SNTB2, PBM peptide bait) was 76.9, the “Enrichment values compared to biotin controls” value (HeLa cell extract preys; prey SNX27, PBM peptide bait) was 12.8 and the “Enrichment values compared to biotin controls” value (HeLa cell extract preys; prey SYNJ2BP, PBM peptide bait) was 49.1. The “Enrichment values compared to biotin controls” value (HeLa cell extract preys; prey TJP1, PBM peptide bait) was 1.7, the “Enrichment values compared to biotin controls” value (HeLa cell extract preys; prey TX1B3, PBM peptide bait) was 30.0 and the “Enrichment values compared to biotin controls” value ([1]; prey APBA1, PBM peptide bait) was 5.1. For the same substance, the “Enrichment values compared to biotin controls” value ([1]; prey DLG4, PBM peptide bait) was 3.2, the “Enrichment values compared to biotin controls” value ([1]; prey DVL2, PBM peptide bait) was 1.0 and the “Enrichment values compared to biotin controls” value ([1]; prey GOPC, PBM peptide bait) was 15.5. For the same substance, the “Enrichment values compared to biotin controls” value ([1]; prey InaDl, PBM peptide bait) was 0.8, the “Enrichment values compared to biotin controls” value ([1]; prey LAP2, PBM peptide bait) was 2.3 and the “Enrichment values compared to biotin controls” value ([1]; prey LNX2, PBM peptide bait) was 1.0. The “Enrichment values compared to biotin controls” value ([1]; prey MAGI3, PBM peptide bait) was 5.4, the “Enrichment values compared to biotin controls” value ([1]; prey MPP1, PBM peptide bait) was 0.547 and the “Enrichment values compared to biotin controls” value ([1]; prey MPP5, PBM peptide bait) was 3.3. The “Enrichment values compared to biotin controls” value ([1]; prey MPP6, PBM peptide bait) was 2.5, the “Enrichment values compared to biotin controls” value ([1]; prey MPP7, PBM peptide bait) was 4.4 and the “Enrichment values compared to biotin controls” value ([1]; prey MYO18A, PBM peptide bait) was 0.4. For the same substance, the “Enrichment values compared to biotin controls” value ([1]; prey PDLIM2, PBM peptide bait) was 1.5, the “Enrichment values compared to biotin controls” value ([1]; prey PDLIM5, PBM peptide bait) was 0.8 and the “Enrichment values compared to biotin controls” value ([1]; prey PDLIM7, PBM peptide bait) was 1.1. The “Enrichment values compared to biotin controls” value ([1]; prey PDZD11, PBM peptide bait) was 1.0, the “Enrichment values compared to biotin controls” value ([1]; prey PSMD9, PBM peptide bait) was 0.8 and the “Enrichment values compared to biotin controls” value ([1]; prey SIPA1L1, PBM peptide bait) was 1.2. The “Enrichment values compared to biotin controls” value ([1]; prey SIPA1L2, PBM peptide bait) was 1.1, the “Enrichment values compared to biotin controls” value ([1]; prey SNTB1, PBM peptide bait) was 6.6 and the “Enrichment values compared to biotin controls” value ([1]; prey SNTB2, PBM peptide bait) was 1.1. The “Enrichment values compared to biotin controls” value ([1]; prey SNX27, PBM peptide bait) was 16.6, the “Enrichment values compared to biotin controls” value ([1]; prey SYNJ2BP, PBM peptide bait) was 14.2 and the “Enrichment values compared to biotin controls” value ([1]; prey TX1B3, PBM peptide bait) was 7.1. The “final additive pKd” value (PDZ-proteins; PDZ-protein AHNAK) was 3.5, the “final additive pKd” value (PDZ-proteins; PDZ-protein CASK) was 3.5 and the “final additive pKd” value (PDZ-proteins; PDZ-protein DLG1) was 5.948. The “final additive pKd” value (PDZ-proteins; PDZ-protein InaDl) was 3.7336, the “final additive pKd” value (PDZ-proteins; PDZ-protein LAP2) was 3.615 and the “final additive pKd” value (PDZ-proteins; PDZ-protein LIN7C) was 4.171. For the same substance, the “final additive pKd” value (PDZ-proteins; PDZ-protein LNX2) was 3.17, the “final additive pKd” value (PDZ-proteins; PDZ-protein MAGI3) was 5.558 and the “final additive pKd” value (PDZ-proteins; PDZ-protein MPP5) was 3.5. The “final additive pKd” value (PDZ-proteins; PDZ-protein MPP6) was 3.5, the “final additive pKd” value (PDZ-proteins; PDZ-protein MPP7) was 3.5 and the “final additive pKd” value (PDZ-proteins; PDZ-protein NHERF2) was 3.5. For the same substance, the “final additive pKd” value (PDZ-proteins; PDZ-protein PDLIM2) was 3.5, the “final additive pKd” value (PDZ-proteins; PDZ-protein PDLIM5) was 3.5 and the “final additive pKd” value (PDZ-proteins; PDZ-protein PDLIM7) was 3.5. For the same substance, the “final additive pKd” value (PDZ-proteins; PDZ-protein PSMD9) was 3.5, the “final additive pKd” value (PDZ-proteins; PDZ-protein SCRIB) was 5.064 and the “final additive pKd” value (PDZ-proteins; PDZ-protein SNTB1) was 5.229. The “final additive pKd” value (PDZ-proteins; PDZ-protein SNTB2) was 4.58, the “final additive pKd” value (PDZ-proteins; PDZ-protein SNX27) was 4.554 and the “final additive pKd” value (PDZ-proteins; PDZ-protein SYNJ2BP) was 5.349. The “final additive pKd” value (PDZ-proteins; PDZ-protein TX1B3) was 4.665.
